Data as given in patent US11554133B2, “Bile acid synthesis promoter, composition for promoting bile acid synthesis and food composition for promoting bile acid synthesis” (KRACIE HOLDINGS, LTD., priority 2017, dated 2023).

What was measured:
bile acid in feces = assay: Measurement of the amount of bile acid in feces (UPLC-MS/MS) of db/db mice fed arctigenin diet; format: in vivo; settings: 0.2% arctigenin in purified diet for nine weeks, pooled feces at end of administration
Experimental: (§1) Using 5-week-old male db/db mice (BKS.Cg−+Leprdb/+Leprdb/Jcl, purchased from CLEA Japan, Inc.) that were leptin receptor-deficient model, the experiments were started after one-week preliminary rearing. The animals were reared under the environment of 23.0±5° C. of temperature, 50.0±10% of humidity and 12 hours of light-dark cycle. The animal experiments were approved by animal care and use committee of Keio University and carried out based on animal experiment rules of Keio University.
(§2) After preliminary rearing, mice were divided into two groups of (a) control group and (b) arctigenin administrated group (AG group) (each group n=8), and made AG group intake purified diet combined with arctigenin (>98.0%) 0.2% and purified diet (AIN-93G) for control group freely for nine weeks. After administration, 18-hour fasting was performed, and blood specimens were collected from abdominal vena cava under anesthesia, and the liver and the small intestine were sampled.
Feces were collected from the rearing cage of each group at the end of the administration period, and the amount of bile acid in feces was measured. 10 mg of dry powder of pooled feces was suspended in 0.2 mL of 90% ethanol and incubated at 65° C. for 1 hour, and the supernatant after centrifugation and the washing of the precipitates were collected together. […]

[1] = system: total cholesterol in the liver; assay: Measurement of total cholesterol in liver of db/db mice fed arctigenin diet; format: in vivo; settings: 0.2% arctigenin in purified diet for nine weeks, liver lipid extract
Experimental: Using 5-week-old male db/db mice (BKS.Cg−+Leprdb/+Leprdb/Jcl, purchased from CLEA Japan, Inc.) that were leptin receptor-deficient model, the experiments were started after one-week preliminary rearing. The animals were reared under the environment of 23.0±5° C. of temperature, 50.0±10% of humidity and 12 hours of light-dark cycle. The animal experiments were approved by animal care and use committee of Keio University and carried out based on animal experiment rules of Keio University. After preliminary rearing, mice were divided into two groups of (a) control group and (b) arctigenin administrated group (AG group) (each group n=8), and made AG group intake purified diet combined with arctigenin (>98.0%) 0.2% and purified diet (AIN-93G) for control group freely for nine weeks. After administration, 18-hour fasting was performed, and blood specimens were collected from abdominal vena cava under anesthesia, and the liver and the small intestine were sampled. Homogenate the liver obtained from each group and extracted total lipid using a lipid extraction kit (Lipid Extraction Kit (Chloroform-Free), Cell Biolabs, Inc.). A total cholesterol level was measured from lipid extract using cholesterol E-test Wako (Wako Pure Chemical Corporation). FIG. 2 is a graph showing the amount of total cholesterol in the liver (mg/dL) in control group and AG group. […]

Cyp8b1 of the liver = assay: Liver Cyp8b1 mRNA expression by qPCR; format: in vivo; settings: db/db mice, 0.2% arctigenin diet nine weeks, qPCR vs 18S rRNA, Student's t-test
Experimental: as §1, §2
(§3) After having performed extraction of total RNA from the obtained organs and cDNA synthesis on each group, the expression level of Cyp8b1, SHP, FXR and FGF4R of the liver which are the liver cholesterol metabolism-related genes and small intestinal FGF15 and SHP were compared by qPCR. As control, 18S rRNA was used. […]

SHP of the liver = assay: Liver SHP mRNA expression by qPCR; format: in vivo; settings: db/db mice, 0.2% arctigenin diet nine weeks, qPCR vs 18S rRNA, Student's t-test
Experimental: as §1, §2, §3

FXR of the liver = assay: Liver FXR mRNA expression by qPCR; format: in vivo; settings: db/db mice, 0.2% arctigenin diet nine weeks, qPCR vs 18S rRNA, Student's t-test
Experimental: as §1, §2, §3

FGF4R of the liver = assay: Liver FGF4R mRNA expression by qPCR; format: in vivo; settings: db/db mice, 0.2% arctigenin diet nine weeks, qPCR vs 18S rRNA, Student's t-test
Experimental: as §1, §2, §3

small intestinal FGF15 = assay: Small intestinal FGF15 mRNA expression by qPCR; format: in vivo; settings: db/db mice, 0.2% arctigenin diet nine weeks, qPCR vs 18S rRNA
Experimental: as §1, §2, §3

small intestinal SHP = assay: Small intestinal SHP mRNA expression by qPCR; format: in vivo; settings: db/db mice, 0.2% arctigenin diet nine weeks, qPCR vs 18S rRNA
Experimental: as §1, §2, §3

[2] = general statement, no test described; cited from earlier work

What does the source list for `COc1cc(C[C@H]2C(=O)OC[C@@H]2Cc2ccc(OC)c(OC)c2)ccc1O` [arctigenin]?
amount of total bile acid in feces in comparison with control group (bile acid in feces): large amount; amount of total cholesterol in the liver versus control group [1]: little amount; relative mRNA expression level of Cyp8b1 of the liver in comparison with control group (Cyp8b1 of the liver): significantly high; relative mRNA expression level of SHP of the liver in comparison with control group (SHP of the liver): significantly low; relative mRNA expression level of FXR of the liver in comparison with control group (FXR of the liver): significantly low; relative mRNA expression level of FGF4R of the liver in comparison with control group (FGF4R of the liver): significantly low; relative mRNA expression level of small intestinal FGF15 in comparison with control group (small intestinal FGF15): low; relative mRNA expression level of small intestinal SHP in comparison with control group (small intestinal SHP): low; solubility in water [2]: water-insoluble
